Source: patent US20250025451A1, “TREATMENT OF CANCER WITH KDM4 INHIBITORS” (Celgene Corporation, priority 2021, published 2025)

Legend:
[1] = tested on: SU106 patient-derived colon cancer organoid model; assay: organoid colony formation assay, SU106; type: cell-based, human
Procedure: (§1) The IC50 values for Compound 1 inhibition of colony formation and viability were determined for the patient-derived colon cancer organoid models: SU60, T002C, SU62, SU34, SU103, T03SC, and SU106, patient-derived pancreatic cancer organoid models PA016SF, PA0143F, T016P, and T028P, and a patient-derived breast cancer organoid model FS5S3.
(§2) Colony formation and viability assays were performed in multiwell plates seeded with organoids using an in vitro culture system composed of a Matrigel layer, media containing a defined set of growth factors, and co-culture with Wnt3 A-secreting mouse embryonic fibroblasts. Assays were initiated by adding either DMSO as a negative control, or an inhibitor panobinostatat 100×IC50 concentration as a positive control, or serially diluted Compound 1. The cultures were incubated for 168 or 144 hours after which the number of viable organoids in each test well was assessed respectively using one of two detection methods: CTG or staining with calcein-AM followed by imaging and colony counting. Colony count or viability of cells treated with compound 1 was expressed as a percent of the negative control. Aggregated Percent of Control values were plotted against the corresponding Compound 1 concentration and the absolute IC50 value was determined from a non-linear regression curve as the concentration where inhibition was 50% of the control.

[2] = tested on: T028P patient-derived pancreatic cancer organoid model; assay: organoid colony formation assay, T028P; type: cell-based, human
Procedure: as §1, §2

[3] = tested on: tumorigenic CD44^High;EpCAM^+ cells of SU60 xenograft tumors; assay: flow cytometry analysis of tumorigenic cell population after treatment of SU60 xenograft tumors; type: in vivo; conditions: NSG female mice, 40 mg/kg PO QD x21
Procedure: The ability of Compound 1 to affect tumorigenic potential was analyzed by flow cytometry analysis of the tumorigenic cell population and functional in vivo tumorigenicity assay (limiting dilution assay).
To assess the effect of Compound 1 on tumorigenic cell population, Compound 1 was used to treat SU60 xenograft tumors. NSG female mice engrafted with SU60 cells (7 mice each group) were administered Compound 1 at 40 mg/kg PO QD×21. The day after the last dose, three tumors nearest to the mean size from each group were dissociated and the single cells were used to perform: 1) flow cytometry analysis of the tumorigenic cell population and 2) functional in vivo tumorigenicity assay (limiting dilution assay). Flow Cytometry Analysis of Tumorigenic Cell Population after Compound 1 Treatment
The proportion of tumorigenic CD44^High;EpCAM^+ cells in the cell population was quantified by flow cytometry. […] Flow cytometry analysis performed on single cell isolated from 3 vehicle-treated and 3 Compound 1-treated tumors. P-value was determined with unpaired Student T-test.

[4] = tested on: immature and mature cell markers in SU60 xenograft tumor cells; assay: single cell gene expression analysis (RT-qPCR) of SU60 xenograft tumors; type: in vivo; conditions: treated vs vehicle
From the text: FIG. 22 illustrates the heatmap representation of single cells gene expression analysis (RT-qPCR) from SU60 xenograft tumors treated with vehicle control or Compound 1. A) Heatmap representation of single cells gene expression analysis (RT-qPCR) from SU60 xenograft tumors treated with vehicle control or Compound 1. Gene expression levels are colored-coded with red for high expression, green low expression and gray not expressed. Three clusters of cells were identified based on shared patterns of gene expression using a gene-set of immature and mature cell markers. […] The top dendrogram clusters genes with similar expression pattern across all cells. Gene expression (in Ct values) was mean-centered at 0 and divided by 2.5 time the standard deviation. B) This graph represents the total number of vehicle-treated and compound 1 treated cells within each cluster. P-values (Fisher's exact test) are represented on top of the bars.
Vehicle control and Compound 1-treated samples were characterized by single cell transcriptional profiling with a gene-set designed to discriminate immature colon progenitor cells and more mature cell-types (Dalerba, 2011). […] Using hierarchical clustering analysis, three clusters based on expression of a subset of immature and mature cell markers were identified. […]

For `CC(C)c1ccc(N(C)c2ccc3c(c2)OCC[C@H]3CNc2cnccc2C(=O)O)cc1` [Compound 1, 3-({[(4R)-7-{methyl[4-(propan-2-yl)phenyl]amino}-3,4-dihydro-2H-1-benzopyran-4-yl]methyl}amino)pyridine-4-carboxylic acid], the IC50 ([1]; Homo sapiens, SU106 colorectal carcinoma model) was > 10 µM, the IC50 ([1]; SU106 human colorectal carcinoma organoid, 144 hrs, Colony Counts) was > 10 µM and the IC50 ([2]; Homo sapiens, T028P pancreatic carcinoma model) was > 10 µM. The IC50 ([2]; T028P human pancreatic carcinoma organoid, 144 hrs, Colony Counts) was > 10 µM, the “reduction of the proportion of tumorigenic cells (CD44^High;EpCAM^+) compared to vehicle control” value [3] was 2.5 fold and the “change in the proportion of progenitor-like cells” value ([4]; p=0.01) was “significant reduction”. The “change in number of intermediate-like and differentiated-like cells” value ([4]; p=0.07) was “increase was not significant”.
